Experimental data published in patent EP0799174B1, “BIOCIDAL ALCOHOLS, THEIR PRODUCTION AND THEIR USE” (SCHÜLKE & MAYR GMBH, priority 1994, dated 1996).

Columns and labels:
Format in all cases: cell-based
[1] = tested on: Germ mixture of Staphylococcus aureus, Staphylococcus epidermis, Escherichia coli, Klebsiella pneumoniae, Enterobacter gergoviae, Pseudomonas aeruginosa …; assay: Preservative test: weekly loading of the sample with germ suspension; settings: aromatic alcohol 0.5% in sulfosuccinate 12.0% / betaine 3.0% formulation
From the text: Standard formulation: • sulfosuccinate 12.0% • betaine 3.0% • aromatic alcohol 0.5% • re-fatting agent • skin care additives • thickener • dem. water to 100 Test germs: Germ mixture of Staphylococcus aureus, Staphylococcus epidermis, Escherichia coli, Klebsiella pneumoniae, Enterobacter gergoviae, Pseudomonas aeruginosa, Pseudomonas fluorescens, Pseudomonas putida, Aspergillus niger, Penicillium funiculosum, Candida albicans; Total germ count 10^8-10^9/ml. Test method: weekly loading of the sample with germ suspension; smear onto CS and Sabouraud agar. See also K.-H. Diehl, P. Oltmanns, J. Ramsbotham, Seife, Öle, Fette, Wachse 118 (1992) 546.
Data expressed semi-qualitatively: • - no growth < 10^2 CFU/g (CFU = colony-forming units) • + slight growth approx. 10^3 CFU/g • ++ moderate growth approx. 10^4-10^5 CFU/g • +++ heavy growth > 10^5 CFU/g

[2] = tested on: Aspergillus niger ATCC 6275; assay: MIC values, water-soluble (inhibition titre, dilution series in CSL); settings: standard formulation: Rewopal MPG 40 25.0 g, aromatic alcohol 10 mmol, dem. water to 100 g, pH 7.0
[3] = tested on: Penicillium funiculosum ATCC 36839; assay: as above; settings: standard formulation: Rewopal MPG 40 25.0 g, aromatic alcohol 10 mmol, dem. water to 100 g, pH 7.0
[4] = tested on: Proteus vulgaris NCTC 4635; assay: as above; settings: standard formulation: Rewopal MPG 40 25.0 g, aromatic alcohol 10 mmol, dem. water to 100 g, pH 7.0
[5] = tested on: Staphylococcus aureus ATCC 6538; assay: as above; settings: standard formulation: Rewopal MPG 40 25.0 g, aromatic alcohol 10 mmol, dem. water to 100 g, pH 7.0
Method: (§1) Standard formulation: • Rewopal MPG 40 25.0 g • aromatic alcohol 10 mmol • dem.* water to 100 g • lactic acid for adjusting the pH value to 7.0 q.s.
(§2) In sterile test tubes, 5 ml each of the dilutions of the disinfectant in WSH (water of standardized hardness) are mixed with 5 ml double-concentrated casein peptone soybean flour peptone solution (CSL) or CSL and deactivating substances.
(§3) To determine the bacteriostatic action on Staphylococcus aureus and Proteus mirabilis the tubes are inoculated by adding 0.1 ml of a CSL culture diluted 1:10 with CSL and incubated for 24 h at 37°C.
(§4) To test the fungistatic action, 0.1 ml of an undiluted CSL culture of Candida albicans which has been incubated at 37°C for 72 h is used in each case. Evaluation takes place after 72 h at 37°C.
(§5) The highest dilution of the preparation in CSL or CSL and deactivating substances that still suppresses growth of the test germs after […] incubation serves as the measure of the multiplication-inhibiting action (inhibition titre).
(§6) In the case of the disinhibition tests, the culture media are to be adjusted to a pH value of 7.0 ± 0.2 according to the state of the disinfectant.
(§7) Standard formulation: • aromatic alcohol 5.0 % • Brij 58 5.0 % • 1,3-butanediol to 100 • Test germs: see above • Test method: see above

[6] = tested on: Candida albicans ATCC 10231; assay: as above; settings: standard formulation: Rewopal MPG 40 25.0 g, aromatic alcohol 10 mmol, dem. water to 100 g, pH 7.0
Method: as §1, §2, §3, §4, §5, §6, §7

[7] = tested on: Mycobacterium terrae ATCC 15755; assay: Germ carrier experiment with standard cotton; parameters: key: E: individual colonies; M: several colonies; +: weak growth; ++: moderate growth; +++: heavy growth; ++++: very heavy growth; ∞: lawn growth; settings: Rewopal MPG 40 25.0%, aromatic alcohol 2.0 %, dem. water to 100
Method: • Rewopal MPG 40 25.0% • aromatic alcohol 2.0 % • dem. water to 100
The bacteria are elutriated with 5 ml CSL from a 24 h-old (37°C) culture onto CSA plates measuring approx. 9 cm in diameter, the suspension being diluted with CSL if necessary. The number of CFU/ml is to be determined using surface culture. It should be > 10^9/ml.
The sterilized and dried germ carriers are introduced into the bacterial suspension and left in it for 15 minutes, during which they are turned over twice.
A number (4) of contaminated, thoroughly impregnated germ carriers, corresponding to the proposed removal times - 15, 30, 60 and 120 minutes - is placed in a small dish and 10 ml of the disinfectant solution to be tested in WSH are poured over them. Air bubbles are to be removed by repeated turning of the germ carriers.
After the corresponding action times, the germ carriers are to be removed from the disinfectant solution, and after rinsing twice in each case for 1 min in 10 ml ML solution (see Appendix) to which the deactivating substances were optionally added, the germ carriers are placed onto the surface of a Löwenstein-Jensen nutrient medium with tweezers and moved backwards and forwards 3 to 4 times using light pressure. After inoculating the nutrient medium surface the small cloth is to remain lying directly above the condensed water level of the nutrient medium.
Germ carriers pre-treated in the same way, but kept in WSH for 120 minutes instead of in disinfectant solution are to be inoculated as a control. The inoculated tubes are incubated at 37°C for 3 weeks.

Ps. aeruginosa = assay: Quantitative surface test according to DGHM, alcoholic surface disinfectant; settings: additive (0.05% for single substances) in ethanol 25.0 % / 1-propanol 35.0 % formulation, germs deposited after approx. 20 minutes
From the text: Standard formulation: • ethanol (MEK denatured) 25.0 % • 1-propanol 35.0 % • perfume 0.02 % • benzotriazole 0.001 % • Marlipal 013/70 0.1% (isotridecanpolyethyleneglycol-(7)-ether = C13 oxo alcohol + 7 mol ethylene oxide) • active ingredient additive x% • dem. water to 100 Test germ: Ps. aeruginosa Test method:
Quantitative surface test according to DGHM (Deutsche Gesellschaft für Hygiene and Microbiology = German Association for Hygiene and Microbiology). In order to exclude the effectiveness of the readily volatile alcohol components (ethanol, 1-propanol), the preparations were deposited onto the surfaces and the germs were deposited after approx. 20 minutes. Test surfaces: PVC and OP tiles Data as reduction factors (log stages)

Structure (SMILES): CC(C)(CO)Cc1ccccc1 [Alcohol 2, 2,2-dimethyl-3-phenyl-1-propanol]
- growth, 1st week ([1]; 1st week): - (no growth < 10^2 CFU/g)
- growth, 2nd week ([1]; 2nd week): - (no growth < 10^2 CFU/g)
- growth, 3rd week ([1]; 3rd week): - (no growth < 10^2 CFU/g)
- growth, 4th week ([1]; 4th week): - (no growth < 10^2 CFU/g)
- growth, 5th week ([1]; 5th week): - (no growth < 10^2 CFU/g)
- MIC (minimum inhibiting concentration) A. niger [2]: 313 μmol/100 ml test solution
- MIC (minimum inhibiting concentration) P. funi. [3]: 313 μmol/100 ml test solution
- MIC (minimum inhibiting concentration) P. vulgaris [4]: 313 μmol/100 ml test solution
- MIC (minimum inhibiting concentration) S. aureus [5]: 313 μmol/100 ml test solution
- MIC (minimum inhibiting concentration) C. albicans [6]: 313 μmol/100 ml test solution
- growth of M. terrae after action time 15' ([7]; 15'): +++
- growth of M. terrae after action time 30' ([7]; 30'): ++
- growth of M. terrae after action time 60' ([7]; 60'): +
- growth of M. terrae after action time 120' ([7]; 120'): M
- reduction factors (log stages) (Ps. aeruginosa; PVC, 30'): >6.0 log stages
- reduction factors (log stages) (Ps. aeruginosa; PVC, 60'): >5.4 log stages
- reduction factors (log stages) (Ps. aeruginosa; PVC, 240'): >6.5 log stages
- reduction factors (log stages) (Ps. aeruginosa; Tiles, 30'): 4.1 log stages
- reduction factors (log stages) (Ps. aeruginosa; Tiles, 60'): 4.9 log stages
- reduction factors (log stages) (Ps. aeruginosa; Tiles, 240'): >5.8 log stages
